In one assay the test system is H9c2. Description: cells. In kind it is functional, cell-based. As to conditions: Rattus norvegicus, H9c2, Myocardium.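 Further: confirmatory concentration-response retest of ultra-high-throughput screening hits for modulation of myocardial damage; cell death induced by hydrogen peroxide oxidative stress; compound pretreatment for 60 min then peroxide exposure for 2 h; potency is for protecting the cells against peroxide damage rather than for killing them.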
For assay [1], the target named is T1, RNA-binding protein pos-1 (Caenorhabditis elegans, UniProt G5EF15).
T1 sequence (G5EF15 whole entry): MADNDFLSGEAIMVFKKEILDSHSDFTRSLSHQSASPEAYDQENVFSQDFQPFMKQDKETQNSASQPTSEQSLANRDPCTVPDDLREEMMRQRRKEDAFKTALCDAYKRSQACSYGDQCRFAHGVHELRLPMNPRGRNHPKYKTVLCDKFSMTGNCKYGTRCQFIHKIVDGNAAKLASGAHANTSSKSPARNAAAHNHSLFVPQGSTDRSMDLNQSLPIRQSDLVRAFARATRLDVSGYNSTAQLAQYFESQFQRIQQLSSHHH
Description: inhibitors of POS-1/mex-3 RNA binding, dose response, biochemical, fluorescence polarization (AID 1964).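 Further: purified POS-1 fused to maltose binding protein made in E. coli; potency of compounds blocking POS-1 binding to fluorescent RNA.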 A general note: Fluorescence polarisation rises when a labelled molecule tumbles more slowly, as on binding a larger partner.

Assay [2] deals with T2, Zinc finger protein mex-5 (Caenorhabditis elegans, UniProt Q9XUB2).
T2 sequence (Q9XUB2 whole entry): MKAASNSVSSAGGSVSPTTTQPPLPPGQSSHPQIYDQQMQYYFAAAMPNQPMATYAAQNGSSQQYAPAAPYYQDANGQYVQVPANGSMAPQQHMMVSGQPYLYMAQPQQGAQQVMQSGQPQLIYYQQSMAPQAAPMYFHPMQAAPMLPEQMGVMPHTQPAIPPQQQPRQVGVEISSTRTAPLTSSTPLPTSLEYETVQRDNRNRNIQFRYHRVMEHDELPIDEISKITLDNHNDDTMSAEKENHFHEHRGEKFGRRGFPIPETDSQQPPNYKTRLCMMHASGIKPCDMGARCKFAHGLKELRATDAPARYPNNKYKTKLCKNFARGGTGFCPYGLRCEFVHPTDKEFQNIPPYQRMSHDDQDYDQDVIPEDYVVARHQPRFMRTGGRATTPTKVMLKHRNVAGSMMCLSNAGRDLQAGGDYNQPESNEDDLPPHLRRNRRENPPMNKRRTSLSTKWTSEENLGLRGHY
Description: MEX-5/TCR-2 RNA interaction inhibitors, dose response, biochemical, C. elegans, fluorescence polarization (AID 1960).

A short description of assay [3]: microbe, parasite or virus in culture. As to conditions: Mycobacterium tuberculosis. In kind it is functional.
In the next assay the target is Cytochrome P450 2C9 (Homo sapiens, UniProt P11712).
Chain of Cytochrome P450 2C9 (P11712 whole entry): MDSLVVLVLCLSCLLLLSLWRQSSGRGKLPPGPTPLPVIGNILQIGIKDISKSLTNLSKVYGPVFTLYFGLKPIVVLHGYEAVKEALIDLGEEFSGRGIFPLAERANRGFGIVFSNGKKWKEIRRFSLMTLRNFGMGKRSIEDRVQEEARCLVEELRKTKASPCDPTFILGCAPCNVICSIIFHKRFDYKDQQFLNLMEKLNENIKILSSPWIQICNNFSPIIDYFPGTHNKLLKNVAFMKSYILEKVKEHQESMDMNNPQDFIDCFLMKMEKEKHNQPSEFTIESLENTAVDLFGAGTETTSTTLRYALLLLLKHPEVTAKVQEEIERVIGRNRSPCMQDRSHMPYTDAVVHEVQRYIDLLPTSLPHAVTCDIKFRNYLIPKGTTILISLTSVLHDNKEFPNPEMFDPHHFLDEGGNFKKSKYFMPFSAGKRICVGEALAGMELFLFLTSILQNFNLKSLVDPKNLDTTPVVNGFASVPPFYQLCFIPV
Another assay concerns the target Cytochrome P450 3A4 (Homo sapiens, UniProt P08684).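 Further: CYP3A4 tested as one member of a cytochrome P450 panel screen.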
The target of assay [4] is T3, Short transient receptor potential channel 4 (Mus musculus, UniProt Q9QUQ5).
T3 sequence (Q9QUQ5 whole entry): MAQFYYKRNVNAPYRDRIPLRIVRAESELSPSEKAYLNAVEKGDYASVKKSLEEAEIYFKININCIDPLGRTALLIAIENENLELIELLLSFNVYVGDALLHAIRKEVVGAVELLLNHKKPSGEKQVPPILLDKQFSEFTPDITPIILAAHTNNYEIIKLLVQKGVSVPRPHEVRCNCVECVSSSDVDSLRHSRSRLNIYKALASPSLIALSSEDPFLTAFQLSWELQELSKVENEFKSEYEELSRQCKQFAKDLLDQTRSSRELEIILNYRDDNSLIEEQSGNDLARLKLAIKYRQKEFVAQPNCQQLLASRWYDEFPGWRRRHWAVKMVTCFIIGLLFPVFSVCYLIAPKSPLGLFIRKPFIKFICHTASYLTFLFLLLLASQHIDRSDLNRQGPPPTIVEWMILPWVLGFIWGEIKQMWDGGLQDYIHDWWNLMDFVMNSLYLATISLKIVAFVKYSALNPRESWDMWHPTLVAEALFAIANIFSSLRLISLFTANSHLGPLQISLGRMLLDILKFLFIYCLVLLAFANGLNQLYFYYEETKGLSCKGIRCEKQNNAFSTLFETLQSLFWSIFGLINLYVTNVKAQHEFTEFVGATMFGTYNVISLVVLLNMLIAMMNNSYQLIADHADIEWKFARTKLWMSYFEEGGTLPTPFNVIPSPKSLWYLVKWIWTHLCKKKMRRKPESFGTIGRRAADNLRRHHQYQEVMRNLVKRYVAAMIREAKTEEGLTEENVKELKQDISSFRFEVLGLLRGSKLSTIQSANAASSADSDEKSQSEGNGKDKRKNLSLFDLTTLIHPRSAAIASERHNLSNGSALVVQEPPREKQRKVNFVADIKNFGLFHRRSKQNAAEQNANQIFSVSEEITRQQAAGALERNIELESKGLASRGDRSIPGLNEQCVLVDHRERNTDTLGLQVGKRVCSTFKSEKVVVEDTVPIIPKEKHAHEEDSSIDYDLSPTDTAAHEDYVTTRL
The assay is described as follows: mouse TRPC4 channel inhibitors, dose response, cell-based, HEK293 TRPC4/mu-opioid, Fluo-4 calcium (AID 434942).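 Further: potency of inhibitors blocking the TRPC4 calcium response.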 In kind it is functional.

Assay [5] is described as follows: Luminescence Cell-Based Dose Confirmation HTS to Identify Inhibitors of Platelet Dense Granule Release. [Related pubchem assays: 1663 (Primary HTS), 1678 (Summary of Project)]. Format: functional.
Assay [6] concerns the target Luciferin 4-monooxygenase (Photinus pyralis, UniProt P08659). Description: firefly luciferase enzyme inhibitors, dose response, biochemical, luminescence (AID 1891).
The target of the next assay is Cytochrome P450 2D6 (Homo sapiens, UniProt P10635).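 Further: CYP2D6 member of a cytochrome P450 panel assay.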
Chain of Cytochrome P450 2D6 (P10635 whole entry): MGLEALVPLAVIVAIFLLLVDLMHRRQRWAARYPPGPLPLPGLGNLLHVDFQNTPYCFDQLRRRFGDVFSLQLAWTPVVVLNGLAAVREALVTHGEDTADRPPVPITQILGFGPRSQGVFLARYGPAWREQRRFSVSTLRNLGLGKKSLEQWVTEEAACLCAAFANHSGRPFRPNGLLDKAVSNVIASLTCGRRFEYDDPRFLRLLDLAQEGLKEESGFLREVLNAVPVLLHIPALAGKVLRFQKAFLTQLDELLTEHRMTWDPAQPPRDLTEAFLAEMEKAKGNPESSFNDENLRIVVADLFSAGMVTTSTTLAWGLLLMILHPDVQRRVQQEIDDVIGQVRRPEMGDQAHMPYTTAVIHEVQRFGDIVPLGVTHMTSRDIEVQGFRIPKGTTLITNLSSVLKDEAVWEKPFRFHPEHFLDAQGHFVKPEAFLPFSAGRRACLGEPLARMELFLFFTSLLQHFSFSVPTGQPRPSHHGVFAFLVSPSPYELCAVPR
A short description of assay [7]: C. albicans growth with fluconazole, confirmation, fluorescence, retest (AID 2467). In kind it is functional, cell-based.
Assay [8] is described as follows: NIH-3T3 fibroblast cytotoxicity, dose response, cytotoxicity control, cell-based, fluorescence, Alamar Blue, secondary assay (AID 2327).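 Further: NIH-3T3 mouse fibroblasts cultured with fluconazole at 8 µg/mL.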 In kind it is functional. On the technique in general: Alamar Blue is a resazurin reagent that responds to reducing activity.
Assay [9] in a line: HEp-2 cell cytotoxicity, dose response, cytotoxicity control for RSV inhibitor project, HTS (AID 2410). To be noted: human respiratory syncytial virus. In kind it is functional.

By IC50 is commonly meant the concentration needed to halve the response being measured. Broadly, the EC50 is the midpoint of the concentration-response curve. As usually defined, the AC50 is the concentration at which the activity in the assay is half-maximal.

The source made the active and inactive calls.

Chain of Cytochrome P450 3A4 (P08684 whole entry): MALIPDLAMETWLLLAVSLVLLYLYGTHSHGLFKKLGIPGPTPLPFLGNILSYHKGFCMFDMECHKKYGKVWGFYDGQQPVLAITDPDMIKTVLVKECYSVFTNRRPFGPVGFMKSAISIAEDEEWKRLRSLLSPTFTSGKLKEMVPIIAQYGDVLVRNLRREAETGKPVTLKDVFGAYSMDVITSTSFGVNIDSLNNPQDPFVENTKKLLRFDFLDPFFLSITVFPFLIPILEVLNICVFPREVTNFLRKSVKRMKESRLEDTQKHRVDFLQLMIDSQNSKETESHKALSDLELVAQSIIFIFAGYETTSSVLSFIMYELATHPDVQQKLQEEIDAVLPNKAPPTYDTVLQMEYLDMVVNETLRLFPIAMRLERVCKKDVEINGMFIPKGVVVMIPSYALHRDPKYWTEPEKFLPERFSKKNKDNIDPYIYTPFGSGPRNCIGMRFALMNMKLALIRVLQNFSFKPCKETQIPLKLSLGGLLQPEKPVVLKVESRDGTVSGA
Chain of Luciferin 4-monooxygenase (P08659 whole entry): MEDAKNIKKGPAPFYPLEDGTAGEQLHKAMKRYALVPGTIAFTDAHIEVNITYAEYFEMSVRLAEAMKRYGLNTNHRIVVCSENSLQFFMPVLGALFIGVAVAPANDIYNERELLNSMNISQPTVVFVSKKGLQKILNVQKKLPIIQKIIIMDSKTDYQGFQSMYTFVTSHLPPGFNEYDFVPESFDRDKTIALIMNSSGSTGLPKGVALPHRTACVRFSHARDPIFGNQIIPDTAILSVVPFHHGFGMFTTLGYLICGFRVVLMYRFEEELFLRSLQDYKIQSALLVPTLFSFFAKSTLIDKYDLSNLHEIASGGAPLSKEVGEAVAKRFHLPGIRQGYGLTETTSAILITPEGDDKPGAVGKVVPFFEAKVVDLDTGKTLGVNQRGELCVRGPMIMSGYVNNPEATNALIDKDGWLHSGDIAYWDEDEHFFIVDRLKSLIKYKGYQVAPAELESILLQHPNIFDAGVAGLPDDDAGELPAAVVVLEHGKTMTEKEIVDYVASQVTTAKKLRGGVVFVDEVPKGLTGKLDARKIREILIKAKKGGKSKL

Take `O=C1N[C@H](Cc2c[nH]c3ccccc23)COC(=O)[C@H](Cc2ccc(F)cc2)C/C=C\C[C@H]1CC(=O)N(CCO)Cc1ccccc1`: the IC50 in the assay on H9c2 is > 79 µM (inactive). As for `COc1cc(OC)c(C2C(C#N)=C(N)OC3=C2C(=O)CC(C)C3)cc1OC` (configuration not stated), the EC50 in [1] and in assay [2] was > 300 µM (not active) each time. Turning to `COc1ccc(COc2cc(-c3cccc(OC)c3)nc3ccc(NC(=O)c4ccc(OC)cc4)cc23)cc1`, the IC50 with H9c2 is > 79 µM (inactive). The CC50 in [3] is 15.8 µM (active). Consider `COc1cccc(Cn2c(=O)c(-c3cn(C)c4ccccc34)nc3cncnc32)c1`, for which the AC50 at Cytochrome P450 2C9 was 0.794 µM (inconclusive); on Cytochrome P450 3A4, 10 µM (inconclusive). Turning to `Cc1c(C2Nc3ccccc3C(=O)N2O)cnn1C` (configuration not stated), the IC50 in the assay on H9c2 is > 79 µM (inactive).

Regarding `Cn1cc(CN2CCCCC2CO)c(-c2ccc(Oc3ccccc3)cc2)n1` (configuration not stated), in assay [4], the EC50 is 7.5 µM (active). Take `C/C(CC(=O)NCc1ccco1)=N\NC(=O)Cc1ccccc1`: the AC50 at Cytochrome P450 3A4 is 17.8 µM (inconclusive). Turning to `Cc1ccc(NC(=O)c2[nH]cnc2C(=O)NCCCCCNC(=O)OC(C)(C)C)cc1`, the IC50 in the assay on H9c2 is > 79 µM (inactive). Consider `NC(=O)N/N=C1\c2ccccc2-c2c(C(N)=O)cccc21`, for which the EC50 in assay [4] is 1.5 µM (active).

`Cn1c(CN2CCCC2)nc2cc(NC(=O)COc3ccccc3)ccc21`: the EC50 in assay [5] and in assay [6] was > 112 µM (not active) each time.

Consider `Cc1n[nH]c(C)c1CCCCOc1ccccc1F`, for which, in assay [4], the EC50 is 3.76 µM (active).

For the molecule `C=CC[C@@H](CC(=O)N[C@H](CO)Cc1ccccc1)C(=O)N[C@@H](COC(=O)[C@@H](CC=C)CC(=O)OC(C)(C)C)Cc1ccccc1`, the IC50 with H9c2 is 12.1 µM (active). Regarding `CCOc1cc(NC(=O)CCl)c(OCC)cc1NC(C)=O`, the CC50 in assay [3] is 25.5 µM (active). With `CN(CC(=O)Nc1c(Cl)cccc1Cl)C(=O)Cn1[nH]c(=O)c2ccccc2c1=O`, the IC50 in the assay with H9c2 was > 79 µM (inactive). Take `CCOc1cc(/C=C2\C(=O)N(Cc3ccc(C)cc3)C(C)=C2C(=O)OC)ccc1O`: the AC50 at Cytochrome P450 3A4 was 1 µM (inconclusive). For `C[C@@H](OC(=O)c1[nH]cnc1C(=O)NCc1ccc(CNC(=O)OC(C)(C)C)cc1)c1ccccc1`, in the assay on H9c2, the IC50 is > 79 µM (inactive). Turning to `CN1CCCCc2c1nc1ccccc1c2N.O=C(O)c1cncc(Br)c1`, in [4], the concentration for a half-maximal effect (EC50) is 0.668 µM (active). As for `Cn1c2[n+](c3ccc(Cl)cc3c1=O)Cc1ccccc1-2`, the concentration giving a half-maximal response (EC50) in assay [5] and in [6] was > 112 µM (not active) throughout.

On to `NC(=O)c1nsc(C(=O)N(Cc2ccco2)C(C(=O)NCc2ccc(F)cc2)c2ccc(O)cc2)c1N` (configuration not stated), for which the EC50 in assay [4] was 0.105 µM (active). The same measure, in the same setting: under `CC(=O)Nc1cccc(C(=O)NCC2(N3CCCCC3)CCCCC2)c1` stands 2.66 µM (active). In the case of `Cc1cc2ccccc2nc1SCC(=O)N1c2ccccc2CC1C` (configuration not stated), the EC50 is 11.9 µM (active) in assay [5] and > 112 µM (not active) in assay [6].

On to `CCNc1ncc2nc(-c3cccs3)c(=O)n(C)c2n1`, for which the AC50 was 10 µM (inconclusive) on Cytochrome P450 2C9 and 12.6 µM (inconclusive) at Cytochrome P450 3A4. As to `Cc1ccc(C(=O)c2oc3nc(C)cc(C)c3c2N)cc1`, the results for the AC50 at Cytochrome P450 2D6 and at Cytochrome P450 3A4 were 10 µM (inconclusive) and 0.891 µM (inconclusive), respectively. Also, the results for the EC50 in assay [7] and in assay [8] were > 38 µM (not active) and > 160 µM (inactive), respectively. For `CCOc1cc2[nH]c(=S)n(CCC(=O)NCc3ccco3)c(=O)c2cc1OCC`, the EC50 in assay [5] and in assay [6] was > 112 µM (not active) in each case. Consider `COc1cc(C(=O)N/N=C/c2sc(N3CCOCC3)nc2-c2ccccc2)cc(OC)c1OC`, for which the IC50 in the assay on H9c2 was 9.3 µM (active). For the molecule `Cc1ccc(SCCNC(=O)c2ccccc2)cc1`, at Cytochrome P450 3A4, the AC50 was 12.6 µM (inconclusive). On to `Cc1cc(/C=C2\SC(Nc3ccc(F)cc3)=NC2=O)c(C)n1-c1ccc(S(N)(=O)=O)cc1`, for which, in assay [3], the CC50 is 12 µM (active). As to `C[C@@H]1OC2C3=C(C(=O)[C@H]4O[C@@H]4[C@H]3O)[C@@H]1[C@H]1[C@H](C)OC=C3[C@H](O)[C@H]4O[C@H]4/C(=N\OCc4ccccc4)[C@@]321`, the AC50 on Cytochrome P450 3A4 was 3.98 µM (inconclusive). In the case of `COc1ccc(C(C(=O)NC2CCCC2)N(C(=O)c2snc(C(N)=O)c2N)c2cccc(O)c2)cc1` (configuration not stated), the IC50 in the assay with H9c2 was > 79 µM (inactive). For the molecule `Cc1ccc(C(=O)O)cc1-n1c(C)cc(C=O)c1C`, the 50% effective concentration (EC50) in [1] and in [2] was > 300 µM (not active) each time. As to `O=C(CCc1nc(O)c2ccccc2n1)N1CCN(S(=O)(=O)c2cc(Cl)ccc2Cl)CC1`, in the assay with H9c2, the IC50 is > 79 µM (inactive). With `CCOCCCn1/c(=N/C(=O)c2cccs2)c(C#N)cc2c(=O)n3cccc(C)c3nc21`, the EC50 is given as > 300 µM (not active) in assay [1] and > 150 µM (not active) in assay [2]. For the molecule `Cc1ccc2nc(O)c3cc(C(=O)N(C)c4ccc(C)c(C)c4)sc3c2c1`, the EC50 in assay [5] and in assay [6] was > 112 µM (not active) in each case. In the case of `CN(C)c1ccc([N+](=O)[O-])cc1C(=O)NCC(c1ccco1)N(C)C` (configuration not stated), the EC50 in [4] was 0.299 µM (active). With `Cc1nnc(SCC(=O)N/N=C/c2cn(-c3ccccc3)nc2-c2ccccc2)n1-c1ccccc1`, the IC50 in the assay on H9c2 is > 79 µM (inactive). `CC(C)(C)N1C(=O)NC(=O)/C(=C/Nc2ccc3c(c2)CCC3)C1=O`: the CC50 in [3] is > 40 µM (active). As for `CN(C)c1ccc(-c2nc(O)c3ccccc3n2)cc1`, the EC50 in assay [5] is 33.4 µM (active); in [6], 8.02 µM (active). Turning to `O=C(O)c1ccccc1-n1c2ccccc2c2ccccc21`, the EC50 in assay [1] and in assay [2] was > 300 µM (not active) in each case. Regarding `COc1ccccc1C(=O)Nc1ccc2c(c1)CCCN2C(=O)c1cccs1`, in [9], the CC50 is 21.5 µM (active). Further, the EC50 in assay [4] is 3.35 µM (active). As for `COc1ccc(OC)c(NC(=O)CSc2nc(N)c(-c3ccccc3)c(O)n2)c1`, the EC50 in assay [5] and in assay [6] was > 112 µM (not active) in each case. As to `CCOC(=O)c1[nH]c2cc(OC)c(OC)cc2c1NC(=O)c1nonc1C`, the AC50 on Cytochrome P450 3A4 is 2.82 µM (inconclusive). As for `Cc1cc(Cl)ccc1NNC(=O)CCc1ccccc1`, the CC50 in assay [3] is > 40 µM (active). As for `CCOC(=O)C1CCN(CC(O)COc2ccc(C(C)(C)C)cc2)CC1` (configuration not stated), the EC50 in assay [4] was 1.88 µM (active). Still for that read-out and setting: the value for `Cc1ccc(Oc2ccccc2/C=N/O)cc1` was 9.44 µM (active).

Source of the values: ChEMBL document CHEMBL1201862, “PubChem BioAssay data set” (2004).
